Positions of bridges follow the written chain, without caps; N, C: chain ends. Residues, ends and D or L forms follow the SMILES beside them.
Columns and labels:
[1] = system: HeLa cells; assay: Cell toxicity assay (CellTiter-Glo), HeLa; type: cell-based
Experimental: reduction at the highest CKP concentration of 50 µM after 72 h (see results below). The absence of cell toxicity is likely due to the inability of the CKPs to penetrate cell membranes, which was experimentally determined in response to another reviewer. Due to space limitations we have not […]
Protocol of cell toxicity assay (Figure above):
HeLa cells or C32 melanoma cells were passaged in DMEM media supplemented with 10% FBS, 1% pen-strep and 1x Glutamax using standard culture conditions (5% CO2, 90% humidity at 37°C). At approximately 95% confluence cells were trypsinized, seeded onto 96-well plates (Corning) at 10,000 cells/well and grown for 24 h. Cells were then incubated with the CKPs 3B3, 1D3-ENI and 1G10-ENI (0, 0.6, 1.9, 5.6, 16.7 and 50 µM) at 37°C for 24 h or for 72h. As a positive control we used staurosporine (STS; 1µM). Cell viability was measured using the CellTiter-Glo luminescent cell viability assay (Promega) on an Envision Multilabel plate reader. Average of at least three independent experiments ± S.D. were plotted in Prism 10. Two-way ANOVA was performed on each dataset and compared to no drug samples and no significant viability reductions were observed, except for some treatments at the […]

[2] = biological target: T1, HTRA1^FL (Homo sapiens, UniProt Q92743); assay: HTRA1^FL enzyme inhibition assay with synthetic substrate H2-OPT; type: biochemical
T1 construct: Human full-length HTRA1 (HTRA1^FL, Q23-P480); made in house; host or cells: Trichoplusia ni cells
Summary of the method: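 CKP or 7mer-ABP preincubated with protease at 37 °C (CKP 60 min; 7mer-ABP 15 min, 2 µM selectivity), then 5 µM Mca-IRRVSYSFK(Dnp)K added in TNC buffer, 0.25% DMSO. Cleavage read kinetically at 37 °C (ex 328/em 393 nm); initial rates as % DMSO control, IC50 by 4PL fit.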

[3] = biological target: T2, HTRA1^FL, HTRA1^PD, HTRA1^PD/PDZ (Homo sapiens, UniProt Q92743); assay: Fluorescence-quenched casein-BODIPY assay, HTRA1 constructs; type: biochemical; settings: 2 µM CKP (0.5 mM 7mer-ABP)
T2 construct: made in house; host or cells: Trichoplusia ni cells (FL); E. coli (PD, PD/PDZ)
Experimental: The fluorescence-quenched casein-BODIPY® assay (EnzCheck®, Thermo Fisher Scientific) was carried out in TNC buffer (50 mM Tris pH 8.0, 200 mM NaCl, 0.25% CHAPS) at 37 °C in 96-well black optical bottom plates (Nalge Nunc Int., Rochester, NY). Enzymes were incubated with CKPs or DMSO control for 15 min prior to addition of casein substrate. The reactant concentrations were: 30 nM HTRA1^FL, 30 nM HTRA1^PD/PDZ, 30 nM HTRA1^PD, 30 nM HTRA2^PD/PDZ, 30 nM HTRA3^FL, 100 nM HTRA3^PD/PDZ, 30 nM HTRA4^FL, 300 nM HTRA4^PD/PDZ, 2 µM CKP, 5 µg/ml casein substrate and 0.25% DMSO. For selectivity assays, 0.5 mM 7mer-ABP was used as positive control. The kinetics of substrate cleavage were measured at 37 °C on a SpectraMax M5 microplate reader (Molecular Devices) with excitation of 485 nm and emission of 530 nm for 30 min (HTRA1 and HTRA2) or 5 h (HTRA3 and HTRA4). The determined initial rates of cleavage were expressed as percent of control (DMSO control) after subtracting the baseline rates (without enzyme).

[4] = biological target: T3, HTRA2^PD/PDZ (Homo sapiens, UniProt O43464); assay: H2-OPT selectivity assay, HTRA2; type: biochemical; settings: 1 nM HTRA2^PD/PDZ, 2 µM CKP (0.5 mM 7mer-ABP), 5 µM H2-OPT
T3 construct: Human HTRA2^PD/PDZ (A134-E458) was from R & D Systems; purchased R & D Systems 1458-HT-100
T3 sequence (O43464 134-458): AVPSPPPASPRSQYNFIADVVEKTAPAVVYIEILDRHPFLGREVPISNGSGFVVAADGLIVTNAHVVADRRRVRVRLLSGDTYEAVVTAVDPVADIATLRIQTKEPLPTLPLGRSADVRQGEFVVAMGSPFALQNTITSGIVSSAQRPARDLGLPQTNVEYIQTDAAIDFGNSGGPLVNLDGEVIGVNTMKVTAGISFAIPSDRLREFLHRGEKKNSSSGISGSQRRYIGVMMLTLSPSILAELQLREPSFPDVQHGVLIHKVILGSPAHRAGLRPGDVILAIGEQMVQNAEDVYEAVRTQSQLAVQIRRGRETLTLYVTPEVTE
Experimental: (§1) Assays with the fluorescence-quenched synthetic substrate Mca-IRRVSYSFK(Dnp)K (H2-OPT)[38],[60] were carried out essentially as described. CKP stock solutions in DMSO were diluted in TNC buffer (dilution series for IC50 determinations, or final concentration of 2 µM for selectivity assay or as indicated for HTRA1/4 mutants) and incubated with enzymes in 96-well black optical bottom plates for 60 min at 37 °C. For selectivity experiments we used the 7mer-ABP as inhibitor, which was incubated with the proteases for 15 min at 37 °C. A 10 mM stock solution of H2-OPT in DMSO was diluted with water, prewarmed at 37 °C and then added to the CKP-enzyme mixtures. The final concentrations in the reaction mixtures were: 1 nM HTRA1^FL, 3 nM HTRA1^PD/PDZ, 1 nM HTRA1^PD, 1 nM HTRA2^PD/PDZ, 3 nM HTRA3^FL, 60 nM HTRA3^PD/PDZ, 6 nM HTRA4^FL, 1 µM HTRA4^PD/PDZ, 1 nM mouse HTRA1^PD, 25 nM HTRA1^PD-A202Y, 1 µM HTRA4^PD/PDZ-Y200A, 0.5 mM 7mer-ABP, 5 µM H2-OPT, and 0.25% DMSO. The kinetics of substrate cleavage was measured at 37 °C on a SpectraMax M5 microplate reader with excitation of 328 nm and emission of 393 nm. The determined initial rates of cleavage were expressed as percent of control (DMSO control) after subtracting the baseline rates (without enzyme). IC50 values were determined by Sigmoidal 4PL modeling of multiple data points from serial dilutions of CKPs using Prism 9 software (GraphPad). […]

[5] = biological target: T4, HTRA3^PD/PDZ, HTRA3^FL (Homo sapiens, UniProt P83110); assay: H2-OPT selectivity assay, HTRA3; type: biochemical; settings: 2 µM CKP (0.5 mM 7mer-ABP)
T4 construct: purchased Abcam (FL form); the PD/PDZ form was made in house in E. coli ab134450
Experimental: as §1

T1 sequence (Q92743 23-480): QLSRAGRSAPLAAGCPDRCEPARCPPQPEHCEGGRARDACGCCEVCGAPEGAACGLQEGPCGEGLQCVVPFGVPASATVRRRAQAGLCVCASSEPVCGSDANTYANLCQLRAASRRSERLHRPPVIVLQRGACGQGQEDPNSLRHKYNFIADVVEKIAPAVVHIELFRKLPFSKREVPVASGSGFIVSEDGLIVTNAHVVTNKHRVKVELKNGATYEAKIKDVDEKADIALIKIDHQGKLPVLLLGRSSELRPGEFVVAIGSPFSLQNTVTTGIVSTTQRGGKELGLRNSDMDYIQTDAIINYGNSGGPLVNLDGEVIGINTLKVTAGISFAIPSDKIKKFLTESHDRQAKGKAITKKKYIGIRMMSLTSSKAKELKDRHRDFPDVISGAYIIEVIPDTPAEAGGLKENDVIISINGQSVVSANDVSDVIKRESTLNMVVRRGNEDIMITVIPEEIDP

## CC[C@H](C)[C@H](NC(=O)[C@@H]1CCCN1C(=O)[C@H](CC(=O)O)NC(=O)[C@H](C)NC(=O)[C@@H](N)Cc1c[nH]cn1)C(=O)N[C@H]1CSSC[C@@H]2NC(=O)[C@H](Cc3ccccc3)NC(=O)[C@H](Cc3c[nH]c4ccccc34)NC(=O)[C@H](C)NC(=O)CNC(=O)[C@H](CO)NC(=O)[C@@H]3CSSC[C@@H](C(=O)NCC(=O)N4CCC[C@H]4C(=O)N[C@@H](Cc4ccc(O)cc4)C(=O)N[C@H](C(=O)NCC(N)=O)C(C)C)NC(=O)[C@H](CO)NC(=O)[C@H](Cc4c[nH]c5ccccc45)NC(=O)[C@H]([C@@H](C)O)NC(=O)[C@H](C)NC(=O)[C@H](Cc4ccc(O)cc4)NC(=O)[C@H](Cc4ccc(O)cc4)NC(=O)[C@H](CSSC[C@H](NC(=O)[C@@H]4CCCN4C(=O)[C@H](CCCCN)NC(=O)[C@H](CC(N)=O)NC1=O)C(=O)N[C@@H](CCCCN)C(=O)N[C@@H]([C@@H](C)O)C(=O)N[C@@H](Cc1c[nH]cn1)C(=O)N[C@@H](CC(=O)O)C(=O)N[C@@H](CC(=O)O)C(=O)N3)NC(=O)[C@H](C)NC(=O)[C@H](CCC(N)=O)NC2=O [3B3] (H-HADPICNKPCKTHDDCSGAWFCQACYYATWSCGPYVG-NH2; disulfide 6-22, 10-25, 16-32)
[1]; 50 µM CKP, 24 h
  Viability reduction, HeLa cells, 24 h: 9%
[1]; 50 µM CKP, 72 h
  Viability reduction, HeLa cells, 72 h: 13%
[1]; 0.6-50 µM CKP, 24 h and 72 h, at least three independent experiments
  Cell viability, HeLa cells: did not appreciably affect cell viability
[2]
  IC50: 53 nM

## DPMFKLV-phosphonate [7mer-ABP]
[3]; 30 nM HTRA1^FL, 5 µg/ml casein, 37 °C
  Inhibition of HTRA1^FL, casein-BODIPY cleavage (% of control): significantly inhibited
[3]; 30 nM HTRA1^PD/PDZ
  Inhibition of HTRA1^PD/PDZ, casein-BODIPY cleavage (% of control): significantly inhibited
[2]; 1 nM HTRA1^FL, 2 µM CKP (0.5 mM 7mer-ABP)
  Inhibition of HTRA1^FL at single concentration, H2-OPT (% of control): significantly inhibited
[4]
  Inhibition of HTRA2^PD/PDZ, H2-OPT (% of control): significantly inhibited
[5]; 3 nM HTRA3^FL
  Inhibition of HTRA3^FL, H2-OPT (% of control): significantly inhibited
[5]; 60 nM HTRA3^PD/PDZ, 5 µM H2-OPT
  Inhibition of HTRA3^PD/PDZ, H2-OPT (% of control): significantly inhibited

From paper PMC11111691, “Cystine-knot peptide inhibitors of HTRA1 bind to a cryptic pocket within the active site region” (Nature Communications, 2024)
